pIC50: −log10 of the molar value.
Legend:
Plasmodium falciparum [1] = test: Antiparasitic activity against drug-resistant Plasmodium falciparum Dd2 infected in erythrocytes assessed as growth inhibition after 48 hrs by [3H]-hypoxanthine incorporation assay; type: functional, cell-based
Plasmodium falciparum [2] = test: Antiparasitic activity against drug-sensitive Plasmodium falciparum 3D7 infected in erythrocytes assessed as growth inhibition after 48 hrs by SYBR green 1 dye-based flow cytometry; type: functional, cell-based; details: 3D7, 48 h
HEK293 = test: Cytotoxicity against HEK293 cells assessed as decrease in cell viability after 24 hrs by Alamar blue assay; type: ADME, cell-based; details: Homo sapiens, HEK293, 24 h
[3] = Selectivity index, ratio of IC50 for HEK293 cells to IC50 for drug-resistant Plasmodium falciparum Dd2 infected in erythrocytes; details: human
[4] = Selectivity index, ratio of IC50 for HEK293 cells to IC50 for drug-sensitive Plasmodium falciparum 3D7 infected in erythrocytes; details: human

Cc1c(-c2ccc(C(=N)NCC(C)C)cc2)oc(-c2ccc(C(=N)NCC(C)C)cc2)c1C
pIC50 (Plasmodium falciparum [1]): 6.82 | pIC50 (Plasmodium falciparum [2]): 7.42 | pIC50 (HEK293): 4.48 | selectivity ratio [3]: 220 | selectivity ratio [4]: 870

CC(C)OCc1c(-c2ccc(C(=N)N)cc2)oc(-c2ccc(C(=N)N)cc2)c1COC(C)C
pIC50 (Plasmodium falciparum [1]): 5.92 | pIC50 (Plasmodium falciparum [2]): 5.97 | pIC50 (HEK293): < 4.30 | selectivity ratio [3]: > 42 | selectivity ratio [4]: > 46

N=C(N)c1ccc(NC(=O)Nc2ccc(C(=N)N)cc2)cc1
pIC50 (Plasmodium falciparum [1]): 6.68 | pIC50 (Plasmodium falciparum [2]): 7.34 | pIC50 (HEK293): 3.58 | selectivity ratio [4]: 5780

COCc1c(-c2ccc(C(=N)N)cc2)oc(-c2ccc(C(=N)N)cc2)c1COC
pIC50 (Plasmodium falciparum [1]): 6.05 | pIC50 (Plasmodium falciparum [2]): 5.98 | pIC50 (HEK293): < 4.30 | selectivity ratio [3]: > 56 | selectivity ratio [4]: > 48

CN(C)CCCCNC(=O)Cc1cc(-c2ccc(C(=N)N)cc2)oc1-c1ccc(C(=N)N)cc1
pIC50 (Plasmodium falciparum [1]): < 5.00 | pIC50 (Plasmodium falciparum [2]): < 5.00 | pIC50 (HEK293): < 4.30

N=C(N)c1ccc(-c2cc(CC(=O)N3CCN(C(=O)c4ccccc4)CC3)c(-c3ccc(C(=N)N)cc3)o2)cc1
pIC50 (Plasmodium falciparum [1]): < 5.00 | pIC50 (Plasmodium falciparum [2]): < 5.00 | pIC50 (HEK293): < 4.30

N=C(N)c1ccc(-c2cc(CC(=O)NCCCO)c(-c3ccc(C(=N)N)cc3)o2)cc1
pIC50 (Plasmodium falciparum [1]): 4.65 | pIC50 (Plasmodium falciparum [2]): < 5.00 | pIC50 (HEK293): < 4.30 | selectivity ratio [3]: > 3

CNC(=O)Cc1cc(-c2ccc(C(=N)N)cc2)oc1-c1ccc(C(=N)N)cc1
pIC50 (Plasmodium falciparum [1]): 5.51 | pIC50 (Plasmodium falciparum [2]): 5.27 | pIC50 (HEK293): < 4.30 | selectivity ratio [3]: > 16 | selectivity ratio [4]: > 9

Cc1c(-c2ccc(C(=N)NO)cc2)oc(-c2ccc(C(=N)NO)cc2)c1C
pIC50 (Plasmodium falciparum [1]): 5.15 | pIC50 (Plasmodium falciparum [2]): < 6.00 | pIC50 (HEK293): < 4.30 | selectivity ratio [3]: > 10

N=C(N)c1ccc(-c2cc(CC(=O)NCCC(c3ccccc3)c3ccccc3)c(-c3ccc(C(=N)N)cc3)o2)cc1
pIC50 (Plasmodium falciparum [1]): 5.83 | pIC50 (Plasmodium falciparum [2]): 5.85 | pIC50 (HEK293): < 4.30 | selectivity ratio [3]: > 34 | selectivity ratio [4]: > 36

CCNC(=N)c1ccc(-c2oc(-c3ccc(C(=N)NCC)cc3)c(C)c2C)cc1
pIC50 (Plasmodium falciparum [1]): 7.52 | pIC50 (Plasmodium falciparum [2]): 7.70 | pIC50 (HEK293): 4.48 | selectivity ratio [3]: 1110 | selectivity ratio [4]: 1660

COCc1c(-c2ccc(C(=N)N)cc2)oc(-c2ccc(C(=N)N)cc2)c1Cl
pIC50 (Plasmodium falciparum [1]): 7.05 | pIC50 (Plasmodium falciparum [2]): 6.80 | pIC50 (HEK293): 3.68 | selectivity ratio [3]: 2320 | selectivity ratio [4]: 1310

CSCCCNC(=O)Cc1cc(-c2ccc(C(=N)N)cc2)oc1-c1ccc(C(=N)N)cc1
pIC50 (Plasmodium falciparum [1]): 5.27 | pIC50 (Plasmodium falciparum [2]): 5.18 | pIC50 (HEK293): < 4.30 | selectivity ratio [3]: > 10 | selectivity ratio [4]: > 7

CSCCNC(=O)Cc1cc(-c2ccc(C(=N)N)cc2)oc1-c1ccc(C(=N)N)cc1
pIC50 (Plasmodium falciparum [1]): 5.26 | pIC50 (Plasmodium falciparum [2]): 5.22 | pIC50 (HEK293): < 4.30 | selectivity ratio [3]: > 10 | selectivity ratio [4]: > 8

N=C(N)c1ccc(-c2cc(CC(=O)N3CCOCC3)c(-c3ccc(C(=N)N)cc3)o2)cc1
pIC50 (Plasmodium falciparum [1]): < 5.00 | pIC50 (Plasmodium falciparum [2]): < 5.00 | pIC50 (HEK293): < 4.30

CN(C)CCN=C(Nc1ccc(C(=N)N)cc1)Nc1ccc(C(=N)N)cc1
pIC50 (Plasmodium falciparum [1]): < 5.00 | pIC50 (Plasmodium falciparum [2]): < 5.00 | pIC50 (HEK293): < 4.30

CCOCc1c(-c2ccc(C(=N)N)cc2)oc(-c2ccc(C(=N)N)cc2)c1COCC
pIC50 (Plasmodium falciparum [1]): 6.07 | pIC50 (Plasmodium falciparum [2]): 5.92 | pIC50 (HEK293): < 4.30 | selectivity ratio [3]: > 59 | selectivity ratio [4]: > 42

Cc1c(-c2ccc(C(=N)N)cc2)oc(-c2ccc(C(=N)N)cc2)c1C
pIC50 (Plasmodium falciparum [1]): 7.22 | pIC50 (Plasmodium falciparum [2]): 7.48 | pIC50 (HEK293): 4.13 | selectivity ratio [3]: 1230 | selectivity ratio [4]: 2240

N=C(N)c1ccc(-c2cc(CC(=O)NCC3CCCCC3)c(-c3ccc(C(=N)N)cc3)o2)cc1
pIC50 (Plasmodium falciparum [1]): 5.62 | pIC50 (HEK293): < 4.30 | selectivity ratio [3]: > 20

CN(C)CCCNC(=O)Cc1cc(-c2ccc(C(=N)N)cc2)oc1-c1ccc(C(=N)N)cc1
pIC50 (Plasmodium falciparum [1]): < 5.00 | pIC50 (Plasmodium falciparum [2]): < 5.00 | pIC50 (HEK293): < 4.30

N=C(N)c1ccc(-c2cc(CC(=O)N3CCN(C(c4ccc(F)cc4)c4ccc(F)cc4)CC3)c(-c3ccc(C(=N)N)cc3)o2)cc1
pIC50 (Plasmodium falciparum [1]): 5.18 | pIC50 (Plasmodium falciparum [2]): 5.77 | pIC50 (HEK293): < 4.30 | selectivity ratio [3]: > 8 | selectivity ratio [4]: > 30

N=C(N)c1ccc(NC(=NCCc2ccccc2)Nc2ccc(C(=N)N)cc2)cc1
pIC50 (Plasmodium falciparum [1]): < 5.00 | pIC50 (Plasmodium falciparum [2]): < 5.00 | pIC50 (HEK293): < 4.30

CCOC(=O)Cc1cc(-c2ccc(C(=N)N)cc2)oc1-c1ccc(C(=N)N)cc1
pIC50 (Plasmodium falciparum [1]): 6.07 | pIC50 (Plasmodium falciparum [2]): 6.66 | pIC50 (HEK293): 3.63 | selectivity ratio [3]: 270 | selectivity ratio [4]: 1060

N=C(N)c1ccc(-c2cc(CC(=O)NCCN3CCOCC3)c(-c3ccc(C(=N)N)cc3)o2)cc1
pIC50 (Plasmodium falciparum [1]): < 5.00 | pIC50 (Plasmodium falciparum [2]): < 5.00 | pIC50 (HEK293): < 4.30

N=C(N)c1ccc(-c2cc(CC(=O)N3CCN(c4ncccn4)CC3)c(-c3ccc(C(=N)N)cc3)o2)cc1
pIC50 (Plasmodium falciparum [1]): 4.76 | pIC50 (Plasmodium falciparum [2]): 5.12 | pIC50 (HEK293): < 4.30 | selectivity ratio [3]: > 3 | selectivity ratio [4]: > 7

N=C(N)c1ccc(NC(=NCCN2CCCCC2)Nc2ccc(C(=N)N)cc2)cc1
pIC50 (Plasmodium falciparum [1]): < 5.00 | pIC50 (Plasmodium falciparum [2]): < 5.00 | pIC50 (HEK293): < 4.30

CN(C)C(=O)Cc1cc(-c2ccc(C(=N)N)cc2)oc1-c1ccc(C(=N)N)cc1
pIC50 (Plasmodium falciparum [1]): 5.42 | pIC50 (Plasmodium falciparum [2]): 5.24 | pIC50 (HEK293): < 4.30 | selectivity ratio [3]: > 13 | selectivity ratio [4]: > 8

CN1CCN(C(=O)Cc2cc(-c3ccc(C(=N)N)cc3)oc2-c2ccc(C(=N)N)cc2)CC1
pIC50 (Plasmodium falciparum [1]): < 5.00 | pIC50 (Plasmodium falciparum [2]): < 5.00 | pIC50 (HEK293): < 4.30

CCCOCc1c(-c2ccc(C(=N)N)cc2)oc(-c2ccc(C(=N)N)cc2)c1COCCC
pIC50 (Plasmodium falciparum [1]): 6.51 | pIC50 (Plasmodium falciparum [2]): 6.41 | pIC50 (HEK293): < 4.30 | selectivity ratio [3]: > 128 | selectivity ratio [4]: > 161

CN1CCN(CCNC(=O)Cc2cc(-c3ccc(C(=N)N)cc3)oc2-c2ccc(C(=N)N)cc2)CC1
pIC50 (Plasmodium falciparum [2]): < 5.00 | pIC50 (HEK293): < 4.30

CONC(=N)c1ccc(-c2oc(-c3ccc(C(=N)NOC)cc3)c(C)c2C)cc1
pIC50 (Plasmodium falciparum [1]): 4.97 | pIC50 (Plasmodium falciparum [2]): < 6.00 | pIC50 (HEK293): < 4.30 | selectivity ratio [3]: > 5

CCN(CC)CCNC(=O)Cc1cc(-c2ccc(C(=N)N)cc2)oc1-c1ccc(C(=N)N)cc1
pIC50 (Plasmodium falciparum [1]): < 5.00 | pIC50 (Plasmodium falciparum [2]): < 5.00 | pIC50 (HEK293): < 4.30

Cc1c(-c2ccc(C(=N)NC(C)C)cc2)oc(-c2ccc(C(=N)NC(C)C)cc2)c1C
pIC50 (Plasmodium falciparum [1]): 7.05 | pIC50 (Plasmodium falciparum [2]): 7.42 | pIC50 (HEK293): 3.51 | selectivity ratio [3]: 3430 | selectivity ratio [4]: 8130

N=C(N)c1ccc(-c2cc(CC(=O)NCCN3CCCCC3)c(-c3ccc(C(=N)N)cc3)o2)cc1
pIC50 (Plasmodium falciparum [1]): < 5.00 | pIC50 (Plasmodium falciparum [2]): < 5.00 | pIC50 (HEK293): < 4.30

CCN(CC)CCN=C(Nc1ccc(C(=N)N)cc1)Nc1ccc(C(=N)N)cc1
pIC50 (Plasmodium falciparum [1]): < 5.00 | pIC50 (Plasmodium falciparum [2]): < 5.00 | pIC50 (HEK293): < 4.30

N=C(N)c1ccc(-c2cc(CC(=O)N3CCCCC3)c(-c3ccc(C(=N)N)cc3)o2)cc1
pIC50 (Plasmodium falciparum [2]): 5.29 | pIC50 (HEK293): < 4.30 | selectivity ratio [4]: > 9

N=C(N)c1ccc(-c2cc(CC(=O)NCCc3ccccc3)c(-c3ccc(C(=N)N)cc3)o2)cc1
pIC50 (Plasmodium falciparum [1]): 5.92 | pIC50 (Plasmodium falciparum [2]): 5.93 | pIC50 (HEK293): < 4.30 | selectivity ratio [3]: > 42 | selectivity ratio [4]: > 42

N=C(N)c1ccc(-c2cc(CC(=O)NCCCc3ccccc3)c(-c3ccc(C(=N)N)cc3)o2)cc1
pIC50 (Plasmodium falciparum [1]): 5.78 | pIC50 (Plasmodium falciparum [2]): 6.11 | pIC50 (HEK293): < 4.30 | selectivity ratio [3]: > 30 | selectivity ratio [4]: > 65

N=C(N)c1ccc(-c2cc(CC(=O)N3CCN(CCO)CC3)c(-c3ccc(C(=N)N)cc3)o2)cc1
pIC50 (Plasmodium falciparum [1]): < 5.00 | pIC50 (Plasmodium falciparum [2]): < 5.00 | pIC50 (HEK293): < 4.30

CN(C)CCNC(=O)Cc1cc(-c2ccc(C(=N)N)cc2)oc1-c1ccc(C(=N)N)cc1
pIC50 (Plasmodium falciparum [1]): < 5.00 | pIC50 (Plasmodium falciparum [2]): < 5.00 | pIC50 (HEK293): < 4.30
